The text below walks through data of patent publication US6509344B1, “Indenoisoquinolines as antineoplastic agents” (The United States of America as represented by the …, priority 1998, dated 2003).

As a reminder, the melting point is the temperature of the solid-liquid transition.

The test system of one data set is UACC-62. As to the kind of experiment: NCI human cancer cell line screen (COMPARE screening), Melanoma UACC-62. To be noted: UACC-62, concentration causing 50% growth inhibition, read-out: Cytotoxicity (G150 in μM) Melanoma UACC-62. The format is cell-based. The method, boiled down:
(§1)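 In the NCI COMPARE in vitro screen, compounds were assessed for antiproliferative effect; about 55 cancer lines from varied tissues were included per compound.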

The subject of data set [1] is approximately 55 different cancer cell lines of diverse tumor origins. The data set can be described thus: NCI screen mean graph midpoint over all cell lines tested. The format is cell-based, human. The conditions noted are these: for IC50: average GI50 for all cell lines tested (approximately 55), values outside test range taken as 10^-8 or 10^-4 molar, read-out: MGM (mean graph midpoint).

In another data set the test system is SN12C. The data set can be described thus: NCI human cancer cell line screen (COMPARE screening), Renal SN12C. The format is cell-based. The conditions noted are these: SN12C, concentration causing 50% growth inhibition, read-out: Cytotoxicity (G150 in μM) Renal SN12C. The method, boiled down: as §1
Another data set deals with supercoiled SV40 DNA. The data set can be described thus: SV40 DNA unwinding assay. The format is biochemical. The conditions noted are these: for DNA unwinding: supercoiled DNA in the presence of topoisomerase I. On the procedure:
With some of the compounds (e.g. 27), the activity seemed to increase initially as the concentration was increased, but then it declined at higher concentrations. […] The unwinding assay using supercoiled DNA in the presence of topoisomerase I is a simple procedure to detect DNA intercalation.
After electrophoresis, DNA bands were stained in 10 μg/mL of ethidium bromide and visualized by transillumination with UV light (300 nm).

The subject of the next data set is human topoisomerase II. As to the kind of experiment: Topoisomerase II-mediated DNA cleavage assay (5'-end-labeled human c-myc DNA). The format is biochemical.
For a further data set, the system named is SF-539. As to the kind of experiment: NCI human cancer cell line screen (COMPARE screening), CNS SF-539. The format is cell-based. To be noted: SF-539; concentration causing 50% growth inhibition; read-out: Cytotoxicity (G150 in μM) CNS SF-539. The method in brief: as §1
The target of a further data set is T1, topoisomerase I (Homo sapiens, UniProt P11387).
T1 sequence (P11387 1-765): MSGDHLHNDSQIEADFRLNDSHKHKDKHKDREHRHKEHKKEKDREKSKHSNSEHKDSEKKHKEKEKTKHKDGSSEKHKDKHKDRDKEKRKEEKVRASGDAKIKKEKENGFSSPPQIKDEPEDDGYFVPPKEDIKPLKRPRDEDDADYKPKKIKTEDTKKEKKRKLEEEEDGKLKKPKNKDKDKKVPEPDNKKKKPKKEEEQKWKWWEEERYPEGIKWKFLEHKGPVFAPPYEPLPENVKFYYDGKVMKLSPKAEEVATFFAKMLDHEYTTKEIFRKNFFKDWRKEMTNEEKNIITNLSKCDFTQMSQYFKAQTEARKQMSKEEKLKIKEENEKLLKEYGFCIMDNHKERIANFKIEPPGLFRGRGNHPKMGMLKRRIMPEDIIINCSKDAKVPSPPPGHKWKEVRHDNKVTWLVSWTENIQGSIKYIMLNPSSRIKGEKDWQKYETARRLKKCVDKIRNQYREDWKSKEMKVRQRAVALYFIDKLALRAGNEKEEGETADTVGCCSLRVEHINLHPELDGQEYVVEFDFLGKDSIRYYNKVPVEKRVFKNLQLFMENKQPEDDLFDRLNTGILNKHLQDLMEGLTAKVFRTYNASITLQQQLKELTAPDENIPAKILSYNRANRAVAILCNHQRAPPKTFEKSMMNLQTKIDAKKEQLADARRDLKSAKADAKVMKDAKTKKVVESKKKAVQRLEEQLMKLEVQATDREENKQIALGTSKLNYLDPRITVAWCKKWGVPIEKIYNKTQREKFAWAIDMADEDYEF
The data set can be described thus: Topoisomerase I-mediated DNA cleavage assay (3'-end-labeled 161 bp pBluescript SK(-) fragment). The format is biochemical. The conditions noted are these: for Top 1 Cleavage: relative to the activity of 1 μM camptothecin. The method in brief: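 A 3′-end ³²P-labeled 161 bp Pvu II/Hind III pBluescript SK(−) fragment was incubated with topoisomerase I and drug for 15 min at 30° C, then stopped with 0.5% SDS. Cleavage products were resolved on a denaturing 16% polyacrylamide/7 M urea gel at 51° C and read by phosphorimaging.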

The next data set concerns HOP-62. The data set can be described thus: NCI human cancer cell line screen (COMPARE screening), Lung HOP-62. The format is cell-based. The conditions noted are these: HOP-62, concentration causing 50% growth inhibition, read-out: Cytotoxicity (G150 in μM) Lung HOP-62. The method in brief: as §1
A further data set deals with MDA-MB-435. The data set can be described thus: NCI human cancer cell line screen (COMPARE screening), Breast MDA-MB-435. The format is cell-based. The conditions noted are these: MDA-MB-435, concentration causing 50% growth inhibition, read-out: Cytotoxicity (G150 in μM) Breast MDA-MB-435. The method, boiled down:
as §1

In a further data set the test system is HCT-116. The data set can be described thus: NCI human cancer cell line screen (COMPARE screening), Colon HCT-116. The format is cell-based. The conditions noted are these: HCT-116, concentration causing 50% growth inhibition, read-out: Cytotoxicity (G150 in μM) Colon HCT-116. The method in brief: as §1
The subject of another data set is DU-145. As to the kind of experiment: NCI human cancer cell line screen (COMPARE screening), Prostate DU-145. The format is cell-based. The conditions noted are these: DU-145, concentration causing 50% growth inhibition, read-out: Cytotoxicity (G150 in μM) Prostate DU-145. The method, boiled down:
as §1

Data set [2] concerns the target T2, topoisomerase I cleavage complexes (Homo sapiens, UniProt P11387).
T2 sequence (P11387 1-765): T1 sequence (P11387 1-765)
The data set can be described thus: Salt reversal of topoisomerase I cleavage complexes. The format is biochemical. The conditions noted are these: increasing salt concentration.

A further data set deals with OVCAR-3. As to the kind of experiment: NCI human cancer cell line screen (COMPARE screening), Ovarian OVCAR-3. The format is cell-based. The conditions noted are these: Homo sapiens; OVCAR-3; concentration causing 50% growth inhibition; read-out: Cytotoxicity (G150 in μM) Ovarian OVCAR-3. The method in brief:
as §1

Entries after “also recorded” stand apart in the source; their conditions may differ. Read-outs that look alike come from different tables or passages of the source.

Consider `COc1cc2c3c(n(C)c(=O)c2cc1OC)-c1cc2c(cc1C3=O)OCO2` [Compound 1, reference compound], for which the IC50 turned out to be 4.2 µM with UACC-62; 20 µM in [1]; 68 µM in the data set with SN12C; 41 µM in the data set on SF-539; 1.3 µM in the data set with HOP-62; 96 µM in the data set on MDA-MB-435. For the same molecule, the IC50 with HCT-116 turned out to be 35 µM; in the data set on DU-145, 37 µM. Besides, the DNA unwinding result in the data set with supercoiled SV40 DNA is “did not produce detectable DNA unwinding; also recorded: does not appear to unwind DNA”. Moreover, in the data set on human topoisomerase II, the “induction of topoisomerase II cleavage complexes” value (shortened to “induction”) is “no effect”. Also, the “activity in the topoisomerase I cleavage assay (in words)” value (“activity” for short) on topoisomerase I is reported as “induce DNA cleavage in the presence of topoisomerase I; also recorded: good activity”. Moreover, the “Top 1 Cleavage” value at topoisomerase I was “++ (those compounds having greater than 50% of the activity of 1 μM camptothecin)”. The “reversal of induced cleavage sites by salt treatment” value (shortened to “reversal of induced cleavage sites”) in [2] is on record as “reversed by salt treatment”.
For `COc1cc2c3c(n(CCCCO)c(=O)c2cc1OC)-c1cc2c(cc1C3=O)OCO2` [Compound 19a, 5,6-Dihydro-5,11-diketo-6-(4-hydroxybut-1-yl)-2,3-dimethoxy-8,9-methylenedioxy-(11H)indeno[1,2-c]isoquinoline], the melting point fell in the range of 304 to 308 °C. Besides, in the data set with UACC-62 (Homo sapiens), the IC50 was determined as 0.99 µM. Moreover, the IC50 in [1] (Homo sapiens) stood at 3.2 µM. In addition, the “cytotoxicity (MGM) relative to lead compound 1” value in data set [1] (comparison in words) was “lower MGM than the lead compound 1”. The DNA unwinding entry in the data set with supercoiled SV40 DNA was “does not appear to unwind DNA”. Also, the “induction” value with human topoisomerase II was “no effect”. On topoisomerase I, the “activity” value is “rival the topoisomerase activity of 1”; the “Top 1 Cleavage” value is “+ (those compounds having between 20% and 50% of the activity of 1 μM camptothecin)”. Besides, the IC50 in the data set with OVCAR-3 stood at 3.7 µM. Also, the IC50 in the data set with HOP-62 (Homo sapiens) amounted to 0.7 µM. Besides, in the data set on MDA-MB-435 (Homo sapiens), the IC50 came to 10 µM. The IC50 in the data set on HCT-116 (Homo sapiens) amounted to 1.4 µM. Besides, the IC50 in the data set with DU-145 (Homo sapiens) came to 0.36 µM. Moreover, the “reversal of induced cleavage sites” value in [2] was “reversed by salt treatment”.
With `COC1=CC2=C(CN1OC)C1=C(c3cc4c(cc3C1=O)OCO4)C(CCCC(C)O)C2=O` (centres unmarked) [Compound 19b, 5,6-Dihydro-6-(4-hydroxypent-1-yl)-5,11-diketo-2,3-dimethoxy-8,9-methylenedioxy-11H-indenoisoquinoline], the melting point was 288 to 290 °C.
Regarding `O=C(O)CCCn1c2c(c3ccccc3c1=O)C(=O)c1ccccc1-2` [Compound 26, 6-(3-Carboxy-1-propyl)-5,6-dihydro-5,11-diketo-11H-indeno[1,2-c]isoquinoline], the IC50 in the data set with UACC-62 (Homo sapiens) is 73 µM; in [1] (Homo sapiens) it was 48 µM; in the data set with SN12C (Homo sapiens) it was 27 µM; in the data set on OVCAR-3, greater than 100 µM; in the data set on HOP-62 (Homo sapiens), 87 µM; with MDA-MB-435 (Homo sapiens) it was greater than 100 µM. Further, the values for the IC50 with HCT-116 (Homo sapiens) and with DU-145 (Homo sapiens) were 40 µM and 48 µM, respectively. Also, the “DNA unwinding at higher concentrations” value with supercoiled SV40 DNA (at higher concentrations) is recorded as “does unwind DNA”. In addition, the “induction” value with human topoisomerase II is reported as “induced topoisomerase II cleavage complexes”. In addition, the “activity” value at topoisomerase I is “most potent; also recorded: rival the topoisomerase activity of 1”. For the same molecule, the “Top 1 Cleavage” value at topoisomerase I was “++ (those compounds having greater than 50% of the activity of 1 μM camptothecin)”. The “reversal of induced cleavage sites” value in data set [2] is “reversed by salt treatment”.
